{"source": "paper PMC6058925", "about": "(JACC: Basic to Translational Science, 2017)", "test_system": "adult male CD1 mice, ischemia-reperfusion", "details": "mouse, in vivo", "data": [{"substance": "AAT: plasma-derived alpha-1 antitrypsin (Aralast NP, Baxter)", "values": [{"measurement": "Infarct size when given with the LRP1 blocking antibody", "result": "significant increase in infarct size"}]}]}
